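Assay format: 96-well plates, 48-hour exposure. At the GI50, growth is halved. The concentration for full growth arrest is given as TGI.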
Experiments:
Test in all cases: DTP human tumour cell line panel, 48 h
SN12C renal = tested on: SN12C renal
HS 578T breast = tested on: HS 578T breast
DU-145 prostate = tested on: DU-145 prostate
MCF7 breast = tested on: MCF7 breast
HL-60(TB) leukemia = tested on: HL-60(TB) leukemia
IGROV1 ovarian = tested on: IGROV1 ovarian
M14 melanoma = tested on: M14 melanoma
SNB-75 CNS = tested on: SNB-75 CNS
EKVX NSCLC = tested on: EKVX NSCLC
SR leukemia = tested on: SR leukemia

Structure (SMILES)	TGI (SN12C renal)	TGI (HS 578T breast)	TGI (DU-145 prostate)	TGI (MCF7 breast)	TGI (HL-60(TB) leukemia)	TGI (IGROV1 ovarian)	TGI (M14 melanoma)	TGI (SNB-75 CNS)	TGI (EKVX NSCLC)	TGI (SR leukemia)	GI50 (HL-60(TB) leukemia)	GI50 (IGROV1 ovarian)	GI50 (SR leukemia)	GI50 (SN12C renal)	GI50 (HS 578T breast)	GI50 (DU-145 prostate)	GI50 (SNB-75 CNS)
C=CCOC(C)(C)C1=CCC(C)CC1 (centres undefined)	> 100 µM	> 100 µM	> 100 µM	> 100 µM	> 100 µM	> 100 µM	> 100 µM	> 100 µM	> 100 µM								
CN(C)c1cccc2c(S(=O)(=O)NCCN)cccc12	> 100 µM	> 100 µM	> 100 µM		> 100 µM	91.9 µM	> 100 µM	64.1 µM	> 100 µM	> 100 µM							
Cc1cc(-c2ccc(N=Nc3ccc4c(S(=O)(=O)O)cc(S(=O)(=O)O)c(N)c4c3O)c(C)c2)ccc1N=Nc1ccc2c(S(=O)(=O)O)cc(S(=O)(=O)O)c(N)c2c1O	> 100 µM			> 100 µM	> 100 µM	> 100 µM		> 100 µM	> 100 µM								
COc1cc2c(cc1OC)C1=C(C=O)c3ccc(OC)c(OC)c3C(O)N1CC2 (centres undefined)	> 100 µM	> 100 µM	87.5 µM	> 100 µM	75.2 µM		78.1 µM	38.6 µM	> 100 µM								
Nc1c(C(=O)O)c2ccc([N+](=O)[O-])cc2c(=O)n1-c1nc2ccccc2s1	> 100 µM	> 100 µM	> 100 µM	> 100 µM		> 100 µM	> 100 µM	> 100 µM	> 100 µM	> 100 µM							
O=S(Nc1ccccc1)c1ccc(Cl)cc1 (centres undefined)	> 100 µM	> 100 µM	> 100 µM	> 100 µM	> 100 µM	> 100 µM	> 100 µM		> 100 µM	> 100 µM							
O=C(Nc1cccc2ccccc12)c1cc2ccccc2oc1=O	> 100 µM	> 100 µM	> 100 µM	> 100 µM	> 100 µM	> 100 µM	> 100 µM	> 100 µM		> 100 µM							
COc1ccc(/C(C=O)=C(\Cl)c2ccc(OC)c(OC)c2)cc1	> 100 µM				> 100 µM	> 100 µM	> 100 µM	60.7 µM	> 100 µM	31.7 µM							
COc1ccc(C(=CCC(C)C2CCC3[C@@H]4C(OC(C)=O)CC5CC(OC(C)=O)CC[C@]5(C)C4CC(OC(C)=O)[C@]23C)c2ccc(OC)cc2)cc1 (some centres undefined)	> 100 µM	> 100 µM		> 100 µM	45.3 µM	> 100 µM	> 100 µM	> 100 µM	> 100 µM	77.5 µM							
Cc1nc(C(=Nc2ccc(Br)cc2)Nn2cnnc2)no1		> 100 µM	> 100 µM	> 100 µM		> 100 µM	> 100 µM	> 100 µM	> 100 µM								
Cc1ccc(S(=O)(=O)OCCN(CCOS(=O)(=O)c2ccc(C)cc2)c2ccc(C=O)cc2)cc1		> 100 µM	69.9 µM	92.9 µM	> 100 µM	> 100 µM	> 100 µM		91 µM								
O=c1c2ccc(Cl)cc2oc2c(CSc3ccccc3)cccc12	> 100 µM	> 100 µM	> 100 µM	> 100 µM		> 52 µM	> 100 µM	> 74.5 µM	> 100 µM	> 100 µM							
O=c1c2[nH]cnc2n(-c2ccccc2)c(=S)n1-c1ccccc1	> 100 µM		> 100 µM	> 100 µM	> 100 µM	> 100 µM	> 100 µM	> 100 µM	> 100 µM	> 100 µM							
CCc1c(O)nc(Nc2nc3ccccc3[nH]2)[nH]c1=O	> 100 µM	> 100 µM	> 100 µM	> 100 µM	> 100 µM	> 100 µM	> 100 µM	> 100 µM		> 100 µM							
COc1cccc(/C=N/[N-]C(N)=O)c1[O-].[Cu+2].[OH3+]	27.2 µM				> 100 µM	19.6 µM		25.1 µM	34.9 µM	43.9 µM	10.8 µM	6.14 µM	5.67 µM				
NCCCNc1nc2ccccc2c2c(=O)c3cc(Cl)ccc3sc12	3.07 µM	5.24 µM	3.27 µM					2.79 µM						1.63 µM	2.01 µM	1.84 µM	1.4 µM
CCOC(=O)N1CCNCCN(C(=O)OCC)CCNCC1	> 100 µM	> 100 µM	> 100 µM	> 100 µM	> 100 µM	> 100 µM	> 100 µM		> 100 µM	> 100 µM							
CC(C)CNP(=O)(NCC(C)C)Oc1ccc(CC(NC(=O)OCc2ccccc2)C(=O)OCc2ccccc2)cc1 (centres undefined)	39.9 µM	85.8 µM	24.3 µM	24.7 µM		> 100 µM	67.7 µM	39.1 µM	77.2 µM	29.2 µM							
CC(=O)O[C@H]1CC[C@@H](OC(C)=O)[C@H]2[C@H](O)[C@H](O)[C@@H]1n1c(=O)n(-c3ccccc3)c(=O)n12	> 100 µM	> 100 µM	> 100 µM	> 100 µM	> 100 µM	> 100 µM	> 100 µM		> 100 µM								
CC(C)C(NCc1c2ccccc2[n+](C)c2ccccc12)C(=O)O (centres undefined)	18 µM				> 21 µM	25.5 µM	16 µM	18 µM	24.2 µM								
CC(C)(NO)/C(=N\O)c1ccccc1	> 10 µM		> 10 µM	> 10 µM	> 10 µM		> 10 µM		> 10 µM	> 10 µM							
NC(=O)CSc1nc2ccccc2c(=O)n1N	> 100 µM	> 100 µM	> 100 µM	> 100 µM		> 100 µM	> 100 µM	> 100 µM	> 100 µM	> 100 µM							
[N-]=[N+]=CC(=O)C1CCN(c2ccccc2)C1=O (centres undefined)	> 10 µM	> 10 µM	> 10 µM	> 10 µM	> 10 µM	> 10 µM	> 10 µM		> 10 µM	> 10 µM							
NC1CCC2(O)c3ccccc3C2C1 (centres undefined)	> 100 µM				> 100 µM		> 100 µM	> 100 µM	> 100 µM	> 100 µM							
Cc1ccc(S(=O)(=O)NC(=O)Nc2ccc(C(=O)O)cc2)cc1	> 100 µM	> 100 µM	> 100 µM	> 100 µM	> 100 µM	> 100 µM	> 100 µM	> 100 µM									
